Data published in PubChem BioAssay AID248 (DTP/NCI, 2004).
Inconclusive results and toxic doses are left out. No stated cut-off is given here; in the data, active means T/C of 150% or more; inactive means T/C below 125%.

Tested on: L1210 leukemia ip in BDF1 mice, survival T/C
Assay: NCI In Vivo Anticancer Drug Screen. Data for tumor model L1210 Leukemia (intraperitoneal) in B6D2F1 (BDF1) mice
Settings: endpoint: mean survival time, higher = longer survival
In short: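 Value reflects the ratio of survival in compound-treated mice to survival in vehicle-treated controls, with both groups carrying the same transplanted tumor.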

[1] = dose: 100.0 mg/kg/injection, schedule: Q01DX001 (ip), vehicle: saline
[2] = dose: 100.0 mg/kg/injection, schedule: Q04DX003 (ip), vehicle: saline
[3] = dose: 200.0 mg/kg/injection, schedule: Q01DX001 (ip), vehicle: saline
[4] = dose: 200.0 mg/kg/injection, schedule: Q04DX003 (ip), vehicle: saline
[5] = dose: 400.0 mg/kg/injection, schedule: Q01DX001 (ip), vehicle: saline
[6] = dose: 400.0 mg/kg/injection, schedule: Q04DX003 (ip), vehicle: saline
[7] = dose: 100.0 mg/kg/injection, schedule: Q01DX009 (ip), vehicle: Klucel (hydroxypropylcellulose) (HPC)
[8] = dose: 200.0 mg/kg/injection, schedule: Q01DX009 (ip), vehicle: Klucel (hydroxypropylcellulose) (HPC)
[9] = dose: 400.0 mg/kg/injection, schedule: Q01DX009 (ip), vehicle: Klucel (hydroxypropylcellulose) (HPC)
[10] = dose: 100.0 mg/kg/injection, schedule: Q04DX003 (ip), vehicle: Klucel (hydroxypropylcellulose) (HPC)
[11] = dose: 200.0 mg/kg/injection, schedule: Q04DX003 (ip), vehicle: Klucel (hydroxypropylcellulose) (HPC)
[12] = dose: 400.0 mg/kg/injection, schedule: Q04DX003 (ip), vehicle: Klucel (hydroxypropylcellulose) (HPC)
[13] = dose: 100.0 mg/kg/injection, schedule: Q04DX003 (ip), vehicle: saline with Tween-80
[14] = dose: 100.0 mg/kg/injection, schedule: Q01DX001 (ip), vehicle: Klucel (hydroxypropylcellulose) (HPC)
[15] = dose: 200.0 mg/kg/injection, schedule: Q01DX001 (ip), vehicle: Klucel (hydroxypropylcellulose) (HPC)
[16] = dose: 400.0 mg/kg/injection, schedule: Q01DX001 (ip), vehicle: Klucel (hydroxypropylcellulose) (HPC)

Measured: T/C

CCCc1cn(C2OC(=O)c3ccccc32)c2ccccc12 (stereo not drawn)
inactive: [1] 96 % of control | [2] 109 % of control | [3] 105 % of control | [4] 97 % of control | [5] 102 % of control | [6] 101 % of control

O=C(O)CNc1cc(S(=O)(=O)O)cc2cc(S(=O)(=O)O)cc(O)c12
inactive: [1] 103 % of control | [2] 103 % of control | [3] 107 % of control | [4] 90 % of control | [5] 96 % of control | [6] 92 % of control

O=C1NCCCN1
inactive: dose: 100.0 mg/kg/injection, schedule: Q04DX003 (ip), vehicle: saline sonified 104 % of control | dose: 200.0 mg/kg/injection, schedule: Q04DX003 (ip), vehicle: saline sonified 102 % of control | dose: 400.0 mg/kg/injection, schedule: Q04DX003 (ip), vehicle: saline sonified 101 % of control

CCSC(=N)N
inactive: dose: 100.0 mg/kg/injection, schedule: Q04DX002 (ip), vehicle: saline 118 % of control | dose: 200.0 mg/kg/injection, schedule: Q04DX002 (ip), vehicle: saline 104 % of control | dose: 400.0 mg/kg/injection, schedule: Q04DX002 (ip), vehicle: saline 91 % of control

COc1ccc(Cl)cc1/C=C\C=N\NC(=O)C[N+](C)(C)C
inactive: dose: 15.0 mg/kg/injection, schedule: Q01DX001 (ip), vehicle: carboxymethylcellulose (CMC) 95 % of control | dose: 30.0 mg/kg/injection, schedule: Q01DX001 (ip), vehicle: carboxymethylcellulose (CMC) 93 % of control

COc1ccc(OC(=O)Nc2cc([N+](=O)[O-])ccc2F)cc1
inactive: [7] 106 % of control | [8] 93 % of control | [9] 93 % of control

CCCCN(CCCC)C(=O)CCC
inactive: [2] 102 % of control | [4] 95 % of control

O=C(C(Cl)(Cl)CO)C(Cl)(Cl)CO
inactive: [1] 91 % of control | [3] 94 % of control | [5] 92 % of control

CCCCCCCNC(C)(C)C(SSSC(c1ccc(Cl)cc1)C(C)(C)NCCCCCCC)c1ccc(Cl)cc1 (stereo not drawn)
inactive: [10] 101 % of control | [11] 101 % of control | [12] 98 % of control

Cc1ccnc(NC(=O)Nc2ccc(F)c([N+](=O)[O-])c2)c1
inactive: [7] 91 % of control | [8] 96 % of control | [9] 104 % of control

O=C1c2ccccc2CCC12OC2c1ccc(F)cc1 (stereo not drawn)
inactive: [10] 97 % of control | [11] 97 % of control | [12] 103 % of control

CCOC(=O)N1CCC2(CC1)NC(=O)c1ccccc1N2
inactive: dose: 100.0 mg/kg/injection, schedule: Q01DX009 (ip), vehicle: saline with Tween-80 98 % of control | [13] 100 % of control | dose: 200.0 mg/kg/injection, schedule: Q01DX009 (ip), vehicle: saline with Tween-80 97 % of control | dose: 200.0 mg/kg/injection, schedule: Q04DX003 (ip), vehicle: saline with Tween-80 102 % of control | dose: 400.0 mg/kg/injection, schedule: Q01DX009 (ip), vehicle: saline with Tween-80 97 % of control | dose: 400.0 mg/kg/injection, schedule: Q04DX003 (ip), vehicle: saline with Tween-80 96 % of control

O=C(CBr)Nc1nccs1
inactive: dose: 3.12 mg/kg/injection, schedule: Q01DX009 (ip), vehicle: saline 98 % of control | dose: 6.25 mg/kg/injection, schedule: Q01DX009 (ip), vehicle: saline 93 % of control | dose: 12.5 mg/kg/injection, schedule: Q01DX009 (ip), vehicle: saline 104 % of control | dose: 12.5 mg/kg/injection, schedule: Q04DX003 (ip), vehicle: saline 98 % of control | dose: 25.0 mg/kg/injection, schedule: Q04DX003 (ip), vehicle: saline 94 % of control

O=C1CC2c3ccccc3C1C1C(=O)OC(=O)C21 (stereo not drawn)
inactive: dose: 25.0 mg/kg/injection, schedule: Q01DX009 (ip), vehicle: Klucel (hydroxypropylcellulose) (HPC) 94 % of control | dose: 50.0 mg/kg/injection, schedule: Q01DX009 (ip), vehicle: Klucel (hydroxypropylcellulose) (HPC) 105 % of control | [1] 102 % of control | [7] 112 % of control | dose: 100.0 mg/kg/injection, schedule: Q01DX009 (ip), vehicle: saline 96 % of control | [10] 107 % of control | [2] 100 % of control | [3] 98 % of control | [11] 100 % of control | [4] 91 % of control | [5] 93 % of control | [12] 109 % of control

CC(C)CCC1(CCBr)C(=O)NC(=Nc2ccccc2)NC1=O (stereo not drawn)
inactive: dose: 100.0 mg/kg/injection, schedule: Q01DX001 (ip), vehicle: carboxymethylcellulose (CMC) 96 % of control | dose: 200.0 mg/kg/injection, schedule: Q01DX001 (ip), vehicle: carboxymethylcellulose (CMC) 102 % of control | dose: 400.0 mg/kg/injection, schedule: Q01DX001 (ip), vehicle: carboxymethylcellulose (CMC) 94 % of control

O=C1NC(=O)C(c2cccc(F)c2)N1 (stereo not drawn)
inactive: dose: 50.0 mg/kg/injection, schedule: Q01DX001 (ip), vehicle: saline 97 % of control | [1] 94 % of control | [3] 94 % of control | [5] 111 % of control

CCCCCCCCCCCCCCCCCCN=C(Cl)Cl
inactive: [14] 88 % of control | [15] 96 % of control | [16] 98 % of control

CC(C)C(C(=O)c1ccccc1)C(c1ccccc1)c1ccccc1 (stereo not drawn)
inactive: dose: 100.0 mg/kg/injection, schedule: Q01DX009 (ip), vehicle: other 103 % of control | dose: 200.0 mg/kg/injection, schedule: Q01DX009 (ip), vehicle: other 90 % of control | dose: 400.0 mg/kg/injection, schedule: Q01DX009 (ip), vehicle: other 103 % of control

ClC12C3CCCC1CCCC2CCC3 (stereo not drawn)
inactive: dose: 100.0 mg/kg/injection, schedule: Q04DX003 (ip), vehicle: other 117 % of control | dose: 200.0 mg/kg/injection, schedule: Q04DX003 (ip), vehicle: other 104 % of control | dose: 400.0 mg/kg/injection, schedule: Q04DX003 (ip), vehicle: other 104 % of control

COc1cc(N)ccc1C(=O)NC(CCC(=O)O)C(=O)O (stereo not drawn)
inactive: [14] 103 % of control | [15] 100 % of control | [16] 103 % of control

COc1ccc(C=NC2C(OC(C)=O)OC(COC(C)=O)C(OC(C)=O)C2OC(C)=O)cc1 (stereo not drawn)
inactive: [1] 98 % of control | [3] 98 % of control | [5] 98 % of control

CCC(COC(=O)c1ccc([N+](=O)[O-])cc1)NCCC1CCCCC1 (stereo not drawn)
inactive: dose: 75.0 mg/kg/injection, schedule: Q01DX001 (ip), vehicle: saline 101 % of control | dose: 150.0 mg/kg/injection, schedule: Q01DX001 (ip), vehicle: saline 104 % of control | dose: 300.0 mg/kg/injection, schedule: Q01DX001 (ip), vehicle: saline 103 % of control

[I][Hg][I].c1ccc(P(N2CCCCC2)N2CCCCC2)cc1
inactive: [7] 102 % of control | [8] 97 % of control | [9] 97 % of control

Oc1ccc(C=NCCN=Cc2ccc(O)cc2)cc1
inactive: dose: 100.0 mg/kg/injection, schedule: Q01DX001 (ip), vehicle: other 103 % of control | dose: 200.0 mg/kg/injection, schedule: Q01DX001 (ip), vehicle: other 103 % of control | dose: 400.0 mg/kg/injection, schedule: Q01DX001 (ip), vehicle: other 103 % of control

CC(C)C(C#N)(CCCCN1CCCC1)c1cccc2ccccc12 (stereo not drawn)
inactive: [13] 95 % of control

O=C1NC(=O)C(c2ccco2)N1 (stereo not drawn)
inactive: [10] 105 % of control | [11] 103 % of control | [12] 114 % of control

Cc1cccc(C)c1Oc1ccc([N+](=O)[O-])cc1[N+](=O)[O-]
inactive: [14] 105 % of control | [15] 112 % of control | [16] 117 % of control
